According to ChEMBL document CHEMBL3797055, “Glabridin-chalcone hybrid molecules: drug resistance reversal agent against clinical isolates of methicillin-resistant Staphylococcus aureus” (Medchemcomm, 2016):
Values after ≈ are worked out from the molar mass of the structure shown.

Legend:
Type in all cases: functional
Staphylococcus aureus [1] = test: Antibacterial activity against Staphylococcus aureus MTCC 96 by broth microdilution assay
Staphylococcus aureus [2] = test: Antibacterial activity against clinical isolates of methicillin-resistant Staphylococcus aureus ST2071 by broth microdilution assay
Staphylococcus aureus [3] = test: Antibacterial activity against clinical isolates of methicillin-resistant Staphylococcus aureus ST10342 by broth microdilution assay
Staphylococcus aureus [4] = test: Antibacterial activity against clinical isolates of methicillin-resistant Staphylococcus aureus P4423 by broth microdilution assay
Staphylococcus aureus [5] = test: Antibacterial activity against clinical isolates of methicillin-resistant Staphylococcus aureus P4629 by broth microdilution assay
Staphylococcus aureus [6] = test: Antibacterial activity against clinical isolates of methicillin-resistant Staphylococcus aureus P4650 by broth microdilution assay
Staphylococcus aureus [7] = test: Antibacterial activity against clinical isolates of methicillin-resistant Staphylococcus aureus ST10760 by broth microdilution assay

| Compound | MIC (Staphylococcus aureus [1]) [µg/mL] | MIC (Staphylococcus aureus [2]) [µg/mL] | MIC (Staphylococcus aureus [3]) [µg/mL] | MIC (Staphylococcus aureus [4]) [µg/mL] | MIC (Staphylococcus aureus [5]) [µg/mL] | MIC (Staphylococcus aureus [6]) [µg/mL] | MIC (Staphylococcus aureus [7]) [µg/mL] |
| --- | --- | --- | --- | --- | --- | --- | --- |
| COc1ccc([C@@H]2COc3c(cc(C=O)c4c3C=CC(C)(C)O4)C2)c(OC)c1 | > 100 | > 100 | > 100 | > 100 | > 100 | > 100 | > 100 |
| COc1ccc(C(=O)/C=C/c2cc([C@@H]3COc4c(ccc5c4C=CC(C)(C)O5)C3)c(OC)cc2OC)cc1 | 50 (≈ 97.5 µM) | > 100 | > 100 | > 100 | > 100 | > 100 | > 100 |
| COc1cc(OC)c([C@@H]2COc3c(ccc4c3C=CC(C)(C)O4)C2)cc1/C=C/C(=O)c1ccc[nH]1 | 25 (≈ 53 µM) | 50 (≈ 106 µM) | 50 (≈ 106 µM) | 50 (≈ 106 µM) | 50 (≈ 106 µM) | 50 (≈ 106 µM) | 50 (≈ 106 µM) |
| COc1cc(OC)c([C@@H]2COc3c(cc(/C=C/C(=O)c4ccccc4)c4c3C=CC(C)(C)O4)C2)cc1/C=C/C(=O)c1ccccc1 | 25 (≈ 40.8 µM) | 25 (≈ 40.8 µM) | 25 (≈ 40.8 µM) | 25 (≈ 40.8 µM) | 25 (≈ 40.8 µM) | 25 (≈ 40.8 µM) | 25 (≈ 40.8 µM) |
| COc1cc(OC)c([C@@H]2COc3c(ccc4c3C=CC(C)(C)O4)C2)cc1/C=C/C(=O)c1cc(OC)c(OC)c(OC)c1 | 25 (≈ 43.7 µM) | 25 (≈ 43.7 µM) | 25 (≈ 43.7 µM) | 25 (≈ 43.7 µM) | 25 (≈ 43.7 µM) | 25 (≈ 43.7 µM) | 25 (≈ 43.7 µM) |
| COc1ccc([C@@H]2COc3c(cc(/C=C/C(=O)c4ccc[nH]4)c4c3C=CC(C)(C)O4)C2)c(OC)c1 | 100 (≈ 212 µM) | > 100 | > 100 | > 100 | > 100 | > 100 | > 100 |
| COc1cc(OC)c([C@@H]2COc3c(ccc4c3C=CC(C)(C)O4)C2)cc1/C=C/C(=O)c1ccco1 | 25 (≈ 52.9 µM) | 25 (≈ 52.9 µM) | 25 (≈ 52.9 µM) | 25 (≈ 52.9 µM) | 25 (≈ 52.9 µM) | 25 (≈ 52.9 µM) | 25 (≈ 52.9 µM) |
| CCn1cc(C(=O)O)c(=O)c2cc(F)c(N3CCNCC3)cc21 [NORFLOXACIN] | 1.56 (≈ 4.89 µM) | 500 (≈ 1570 µM) | 250 (≈ 783 µM) | 250 (≈ 783 µM) | 500 (≈ 1570 µM) | 125 (≈ 391 µM) | 500 (≈ 1570 µM) |
| COc1cc(OC)c([C@@H]2COc3c(ccc4c3C=CC(C)(C)O4)C2)cc1C=O | > 100 | > 100 | > 100 | > 100 | > 100 | > 100 | > 100 |
| COc1ccc([C@@H]2COc3c(cc(/C=C/C(=O)c4ccccc4)c4c3C=CC(C)(C)O4)C2)c(OC)c1 | 25 (≈ 51.8 µM) | 25 (≈ 51.8 µM) | 25 (≈ 51.8 µM) | 25 (≈ 51.8 µM) | 25 (≈ 51.8 µM) | 25 (≈ 51.8 µM) | 25 (≈ 51.8 µM) |
| COc1cc(OC)c([C@@H]2COc3c(cc(/C=C/C(=O)c4ccccc4OC)c4c3C=CC(C)(C)O4)C2)cc1/C=C/C(=O)c1ccccc1OC | 50 (≈ 74.3 µM) | 100 (≈ 149 µM) | 100 (≈ 149 µM) | 100 (≈ 149 µM) | 100 (≈ 149 µM) | 100 (≈ 149 µM) | 100 (≈ 149 µM) |
| COc1cc(OC)c([C@@H]2COc3c(ccc4c3C=CC(C)(C)O4)C2)cc1/C=C/C(=O)c1ccccc1 | 25 (≈ 51.8 µM) | 25 (≈ 51.8 µM) | 25 (≈ 51.8 µM) | 25 (≈ 51.8 µM) | 25 (≈ 51.8 µM) | 25 (≈ 51.8 µM) | 25 (≈ 51.8 µM) |
| COc1cc(OC)c([C@@H]2COc3c(cc(/C=C/C(=O)c4ccc[nH]4)c4c3C=CC(C)(C)O4)C2)cc1/C=C/C(=O)c1ccc[nH]1 | 50 (≈ 84.6 µM) | 50 (≈ 84.6 µM) | 50 (≈ 84.6 µM) | 50 (≈ 84.6 µM) | 50 (≈ 84.6 µM) | 50 (≈ 84.6 µM) | 50 (≈ 84.6 µM) |
| COc1ccc([C@@H]2COc3c(cc(/C=C/C(=O)c4cc(OC)c(OC)c(OC)c4)c4c3C=CC(C)(C)O4)C2)c(OC)c1 | 25 (≈ 43.7 µM) | 25 (≈ 43.7 µM) | 25 (≈ 43.7 µM) | 25 (≈ 43.7 µM) | 25 (≈ 43.7 µM) | 25 (≈ 43.7 µM) | 25 (≈ 43.7 µM) |
